Experimental data published in ChEMBL document CHEMBL5705903, “A DNA Hypomethylation Signature Predicts Antitumor Activity of LSD1 Inhibitors in SCLC” (Cancer Cell, 2015).

Legend:
Adenosine receptor A2a = Adenosine receptor A2a (Homo sapiens, UniProt P29274); experiment: Agonist activity at Adenosine A2a receptor (unknown origin); format: functional
[1] = target: Alpha-1B adrenergic receptor (Homo sapiens, UniProt P35368); experiment: Agonist activity at Adrenergic a1B receptor (unknown origin); format: functional
[2] = target: T1, Beta-2 adrenergic receptor (Homo sapiens, UniProt P07550); experiment: Agonist activity at Adrenergic b2 receptor (unknown origin); format: functional
T1 sequence (P07550 whole entry): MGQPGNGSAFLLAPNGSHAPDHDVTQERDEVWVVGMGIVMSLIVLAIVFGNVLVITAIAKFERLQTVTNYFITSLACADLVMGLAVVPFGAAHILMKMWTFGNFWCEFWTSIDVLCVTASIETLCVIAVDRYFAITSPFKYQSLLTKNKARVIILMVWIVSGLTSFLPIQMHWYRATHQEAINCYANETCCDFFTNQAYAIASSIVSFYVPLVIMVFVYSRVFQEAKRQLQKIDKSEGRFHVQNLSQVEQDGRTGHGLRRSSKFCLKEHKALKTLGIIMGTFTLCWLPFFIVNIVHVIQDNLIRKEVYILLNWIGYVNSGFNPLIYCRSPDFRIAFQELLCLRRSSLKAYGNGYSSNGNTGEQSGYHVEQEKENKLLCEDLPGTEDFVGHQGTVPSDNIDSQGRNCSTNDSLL

[3] = target: T1, Beta-2 adrenergic receptor; experiment: Antagonist activity at Adrenergic b2 receptor (unknown origin); format: functional
D(2) dopamine receptor [4] = target: T2, D(2) dopamine receptor (Homo sapiens, UniProt P14416); experiment: Agonist activity at Dopamine D2 receptor (unknown origin); format: functional
T2 sequence (P14416 whole entry): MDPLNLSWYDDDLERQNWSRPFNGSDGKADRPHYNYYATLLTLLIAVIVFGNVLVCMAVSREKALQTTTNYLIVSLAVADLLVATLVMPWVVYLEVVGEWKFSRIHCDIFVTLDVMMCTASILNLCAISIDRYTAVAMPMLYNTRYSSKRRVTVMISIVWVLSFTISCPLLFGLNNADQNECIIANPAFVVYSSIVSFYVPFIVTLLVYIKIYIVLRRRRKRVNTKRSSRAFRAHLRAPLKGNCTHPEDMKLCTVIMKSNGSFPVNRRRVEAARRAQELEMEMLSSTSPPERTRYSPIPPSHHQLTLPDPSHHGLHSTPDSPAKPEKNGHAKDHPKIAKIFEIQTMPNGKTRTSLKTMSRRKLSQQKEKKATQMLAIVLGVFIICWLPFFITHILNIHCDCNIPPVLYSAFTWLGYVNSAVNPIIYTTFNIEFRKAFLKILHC

D(2) dopamine receptor [5] = target: T2, D(2) dopamine receptor; experiment: Antagonist activity at Dopamine D2 receptor (unknown origin); format: functional
Histamine H1 receptor = Histamine H1 receptor (Homo sapiens, UniProt P35367); experiment: Antagonist activity at Histamine H1 receptor (unknown origin); format: functional
[6] = target: T3, Muscarinic acetylcholine receptor M1 (Homo sapiens, UniProt P11229); experiment: Agonist activity at Muscarinic M1 receptor (unknown origin); format: functional
T3 sequence (P11229 whole entry): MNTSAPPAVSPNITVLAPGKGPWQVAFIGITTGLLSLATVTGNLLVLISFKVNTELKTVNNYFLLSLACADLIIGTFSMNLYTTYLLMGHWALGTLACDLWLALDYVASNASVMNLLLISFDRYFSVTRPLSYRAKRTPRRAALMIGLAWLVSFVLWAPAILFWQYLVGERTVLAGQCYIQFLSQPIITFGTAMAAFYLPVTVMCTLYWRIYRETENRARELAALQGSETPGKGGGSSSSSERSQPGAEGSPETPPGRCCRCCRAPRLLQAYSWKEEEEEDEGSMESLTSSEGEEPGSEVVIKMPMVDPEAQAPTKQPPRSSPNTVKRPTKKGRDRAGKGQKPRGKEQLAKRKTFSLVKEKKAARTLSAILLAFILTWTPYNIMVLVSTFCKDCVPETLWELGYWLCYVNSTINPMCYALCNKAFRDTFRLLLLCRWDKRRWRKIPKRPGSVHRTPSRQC

[7] = target: T4, Muscarinic acetylcholine receptor M2 (Homo sapiens, UniProt P08172); experiment: Agonist activity at Muscarinic M2 receptor (unknown origin); format: functional
T4 sequence (P08172 whole entry): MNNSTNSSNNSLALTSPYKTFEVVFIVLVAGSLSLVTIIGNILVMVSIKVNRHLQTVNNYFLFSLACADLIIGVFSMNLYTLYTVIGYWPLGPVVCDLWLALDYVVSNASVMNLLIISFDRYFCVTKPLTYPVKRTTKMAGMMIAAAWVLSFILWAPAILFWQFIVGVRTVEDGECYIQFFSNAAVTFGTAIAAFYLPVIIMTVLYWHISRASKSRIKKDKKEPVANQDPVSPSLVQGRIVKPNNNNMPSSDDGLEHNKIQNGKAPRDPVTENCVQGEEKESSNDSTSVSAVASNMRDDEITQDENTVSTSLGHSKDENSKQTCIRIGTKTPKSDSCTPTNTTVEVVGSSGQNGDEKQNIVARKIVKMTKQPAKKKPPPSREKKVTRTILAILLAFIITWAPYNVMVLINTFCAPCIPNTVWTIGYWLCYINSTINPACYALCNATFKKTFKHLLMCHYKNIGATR

[8] = target: T4, Muscarinic acetylcholine receptor M2; experiment: Antagonist activity at Muscarinic M2 receptor (unknown origin); format: functional
Substance-P receptor = Substance-P receptor (Homo sapiens, UniProt P25103); experiment: Antagonist activity at NK1 receptor (unknown origin); format: functional
Sequence of Substance-P receptor (P25103 whole entry): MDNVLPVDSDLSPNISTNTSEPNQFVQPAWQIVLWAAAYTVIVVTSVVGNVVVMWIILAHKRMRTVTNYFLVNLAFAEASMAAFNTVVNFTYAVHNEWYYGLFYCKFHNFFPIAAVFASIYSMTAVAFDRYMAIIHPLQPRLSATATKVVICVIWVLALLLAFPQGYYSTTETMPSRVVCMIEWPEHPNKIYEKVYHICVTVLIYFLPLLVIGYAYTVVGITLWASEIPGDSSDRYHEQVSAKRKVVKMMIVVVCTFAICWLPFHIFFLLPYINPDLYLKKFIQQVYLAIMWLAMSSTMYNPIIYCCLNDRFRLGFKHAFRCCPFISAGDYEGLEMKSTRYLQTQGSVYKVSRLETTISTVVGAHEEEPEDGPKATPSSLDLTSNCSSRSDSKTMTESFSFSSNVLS

Mu-type opioid receptor = Mu-type opioid receptor (Homo sapiens, UniProt P35372); experiment: Agonist activity at MOR (unknown origin); format: functional
[9] = target: Kappa-type opioid receptor (Homo sapiens, UniProt P41145); experiment: Antagonist activity at KOR (unknown origin); format: functional
[10] = target: T5, 5-hydroxytryptamine receptor 1B (Homo sapiens, UniProt P28222); experiment: Agonist activity at 5-HT1B receptor (unknown origin); format: functional
T5 sequence (P28222 whole entry): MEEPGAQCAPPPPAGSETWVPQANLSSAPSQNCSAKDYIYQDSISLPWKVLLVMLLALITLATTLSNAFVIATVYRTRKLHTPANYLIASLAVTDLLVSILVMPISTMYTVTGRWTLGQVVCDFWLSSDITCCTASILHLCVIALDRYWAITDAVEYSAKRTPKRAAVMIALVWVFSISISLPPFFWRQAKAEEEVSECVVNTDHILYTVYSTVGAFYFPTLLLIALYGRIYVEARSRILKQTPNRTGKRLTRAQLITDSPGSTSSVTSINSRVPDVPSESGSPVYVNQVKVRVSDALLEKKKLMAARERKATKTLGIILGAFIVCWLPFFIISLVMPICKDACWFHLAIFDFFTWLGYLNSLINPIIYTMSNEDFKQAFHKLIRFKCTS

[11] = target: T5, 5-hydroxytryptamine receptor 1B; experiment: Antagonist activity at 5-HT1B (unknown origin); format: functional
[12] = target: 5-hydroxytryptamine receptor 2A (Homo sapiens, UniProt P28223); experiment: Antagonist activity at 5-HT2A receptor (unknown origin); format: functional
[13] = target: T6, 5-hydroxytryptamine receptor 2C (Homo sapiens, UniProt P28335); experiment: Agonist activity at 5-HT2C receptor (unknown origin); format: functional
T6 sequence (P28335 whole entry): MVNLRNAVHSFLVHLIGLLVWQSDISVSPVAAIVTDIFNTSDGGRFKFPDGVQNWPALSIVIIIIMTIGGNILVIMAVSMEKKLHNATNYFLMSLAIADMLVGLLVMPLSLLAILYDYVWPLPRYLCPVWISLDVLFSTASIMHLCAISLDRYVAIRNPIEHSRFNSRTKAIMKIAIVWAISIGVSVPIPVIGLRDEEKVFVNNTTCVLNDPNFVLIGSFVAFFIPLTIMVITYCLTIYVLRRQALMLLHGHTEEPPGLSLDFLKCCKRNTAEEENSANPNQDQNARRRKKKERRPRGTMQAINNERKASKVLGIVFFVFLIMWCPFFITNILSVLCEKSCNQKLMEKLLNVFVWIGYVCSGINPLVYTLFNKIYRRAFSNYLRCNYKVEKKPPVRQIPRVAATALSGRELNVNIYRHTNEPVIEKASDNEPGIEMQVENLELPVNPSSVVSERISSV

[14] = target: T6, 5-hydroxytryptamine receptor 2C; experiment: Antagonist activity at 5-HT2C receptor (unknown origin); format: functional
Vasopressin V1a receptor = Vasopressin V1a receptor (Homo sapiens, UniProt P37288); experiment: Antagonist activity at V1a receptor (unknown origin); format: functional
Sequence of Vasopressin V1a receptor (P37288 whole entry): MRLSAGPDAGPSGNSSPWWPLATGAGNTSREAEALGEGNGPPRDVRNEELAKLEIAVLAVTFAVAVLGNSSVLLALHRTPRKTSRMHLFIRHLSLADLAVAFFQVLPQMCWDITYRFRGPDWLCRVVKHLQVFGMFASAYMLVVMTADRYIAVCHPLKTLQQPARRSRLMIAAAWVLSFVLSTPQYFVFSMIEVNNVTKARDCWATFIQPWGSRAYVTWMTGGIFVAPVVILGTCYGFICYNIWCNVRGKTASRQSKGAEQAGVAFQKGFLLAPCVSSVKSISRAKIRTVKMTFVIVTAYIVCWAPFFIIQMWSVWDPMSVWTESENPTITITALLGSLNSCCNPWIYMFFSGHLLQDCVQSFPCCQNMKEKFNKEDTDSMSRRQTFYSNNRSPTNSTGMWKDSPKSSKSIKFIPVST

[15] = Inhibition of COX (unknown origin); parameters: species or system Homo sapiens
[16] = target: cGMP-inhibited 3',5'-cyclic phosphodiesterase 3A (Homo sapiens, UniProt Q14432); experiment: Inhibition of PDE3A (unknown origin)
Acetylcholinesterase = Acetylcholinesterase (Homo sapiens, UniProt P22303); experiment: Inhibition of AChE (unknown origin)
[17] = target: Potassium voltage-gated channel subfamily A member 5 (Homo sapiens, UniProt P22460); experiment: Inhibition of Kv1.5 (unknown origin)
Sequence of Potassium voltage-gated channel subfamily A member 5 (P22460 whole entry): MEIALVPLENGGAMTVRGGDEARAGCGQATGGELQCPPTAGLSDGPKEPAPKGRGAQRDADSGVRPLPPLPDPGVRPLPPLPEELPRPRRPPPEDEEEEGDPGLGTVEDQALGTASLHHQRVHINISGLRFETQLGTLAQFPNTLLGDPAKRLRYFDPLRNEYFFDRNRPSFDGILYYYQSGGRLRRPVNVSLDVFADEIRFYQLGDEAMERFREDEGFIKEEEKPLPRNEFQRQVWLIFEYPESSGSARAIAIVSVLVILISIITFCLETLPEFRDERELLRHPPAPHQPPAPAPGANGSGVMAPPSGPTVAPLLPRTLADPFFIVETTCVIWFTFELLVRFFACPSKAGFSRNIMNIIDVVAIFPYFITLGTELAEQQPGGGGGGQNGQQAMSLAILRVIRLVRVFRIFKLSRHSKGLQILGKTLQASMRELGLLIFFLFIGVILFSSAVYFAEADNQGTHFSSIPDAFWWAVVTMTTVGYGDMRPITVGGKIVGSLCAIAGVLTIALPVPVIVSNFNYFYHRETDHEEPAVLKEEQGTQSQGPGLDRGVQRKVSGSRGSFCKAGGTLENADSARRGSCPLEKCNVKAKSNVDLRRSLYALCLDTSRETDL

[18] = target: Voltage-gated inwardly rectifying potassium channel KCNH2 (Homo sapiens, UniProt Q12809); experiment: Inhibition of hERG (unknown origin); format: toxicity
[19] = target: Serotonin 3 (5-HT3) receptor; experiment: Inhibition of 5-HT3 receptor (unknown origin); format: protein-complex assay, Homo sapiens
[20] = Inhibition of AChR receptor (unknown origin); parameters: species or system Homo sapiens
Aurora kinase B = Aurora kinase B (Homo sapiens, UniProt Q96GD4); experiment: Inhibition of Aurora B (unknown origin)
Sequence of Aurora kinase B (Q96GD4 whole entry): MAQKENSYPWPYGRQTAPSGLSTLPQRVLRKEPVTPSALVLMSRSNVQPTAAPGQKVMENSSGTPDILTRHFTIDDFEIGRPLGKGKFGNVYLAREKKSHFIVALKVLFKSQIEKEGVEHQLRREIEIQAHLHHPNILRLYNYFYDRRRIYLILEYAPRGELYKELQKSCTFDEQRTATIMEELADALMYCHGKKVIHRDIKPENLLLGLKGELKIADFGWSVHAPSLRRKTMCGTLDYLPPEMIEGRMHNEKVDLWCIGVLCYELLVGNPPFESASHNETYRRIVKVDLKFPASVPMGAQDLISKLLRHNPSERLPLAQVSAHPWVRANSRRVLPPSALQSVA

[21] = target: Tyrosine-protein kinase Lck (Homo sapiens, UniProt P06239); experiment: Inhibition of LCK (unknown origin)
[22] = target: Sodium-dependent noradrenaline transporter (Homo sapiens, UniProt P23975); experiment: Inhibition of NET (unknown origin)
[23] = target: Sodium-dependent serotonin transporter (Homo sapiens, UniProt P31645); experiment: Inhibition of SERT (unknown origin)
Sequence of Sodium-dependent serotonin transporter (P31645 whole entry): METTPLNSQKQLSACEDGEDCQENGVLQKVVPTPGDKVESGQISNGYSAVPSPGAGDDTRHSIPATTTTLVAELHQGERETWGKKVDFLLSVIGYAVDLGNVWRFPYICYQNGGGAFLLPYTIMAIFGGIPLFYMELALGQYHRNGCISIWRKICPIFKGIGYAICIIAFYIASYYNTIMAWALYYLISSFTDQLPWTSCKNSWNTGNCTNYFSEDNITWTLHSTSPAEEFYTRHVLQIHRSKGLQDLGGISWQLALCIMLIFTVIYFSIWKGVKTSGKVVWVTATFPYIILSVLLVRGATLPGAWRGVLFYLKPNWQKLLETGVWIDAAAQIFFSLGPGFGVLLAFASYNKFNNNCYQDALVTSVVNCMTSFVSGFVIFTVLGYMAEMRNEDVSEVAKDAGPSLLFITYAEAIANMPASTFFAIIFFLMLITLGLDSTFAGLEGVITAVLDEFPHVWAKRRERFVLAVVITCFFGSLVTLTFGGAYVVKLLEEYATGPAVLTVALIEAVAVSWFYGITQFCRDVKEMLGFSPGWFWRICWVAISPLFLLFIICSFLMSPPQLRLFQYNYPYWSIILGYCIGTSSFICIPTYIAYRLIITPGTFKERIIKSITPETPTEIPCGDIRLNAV

[24] = target: Solute carrier organic anion transporter family member 1B1 (Homo sapiens, UniProt Q9Y6L6); experiment: Inhibition of OATP1B1 (unknown origin)
Sequence of Solute carrier organic anion transporter family member 1B1 (Q9Y6L6 whole entry): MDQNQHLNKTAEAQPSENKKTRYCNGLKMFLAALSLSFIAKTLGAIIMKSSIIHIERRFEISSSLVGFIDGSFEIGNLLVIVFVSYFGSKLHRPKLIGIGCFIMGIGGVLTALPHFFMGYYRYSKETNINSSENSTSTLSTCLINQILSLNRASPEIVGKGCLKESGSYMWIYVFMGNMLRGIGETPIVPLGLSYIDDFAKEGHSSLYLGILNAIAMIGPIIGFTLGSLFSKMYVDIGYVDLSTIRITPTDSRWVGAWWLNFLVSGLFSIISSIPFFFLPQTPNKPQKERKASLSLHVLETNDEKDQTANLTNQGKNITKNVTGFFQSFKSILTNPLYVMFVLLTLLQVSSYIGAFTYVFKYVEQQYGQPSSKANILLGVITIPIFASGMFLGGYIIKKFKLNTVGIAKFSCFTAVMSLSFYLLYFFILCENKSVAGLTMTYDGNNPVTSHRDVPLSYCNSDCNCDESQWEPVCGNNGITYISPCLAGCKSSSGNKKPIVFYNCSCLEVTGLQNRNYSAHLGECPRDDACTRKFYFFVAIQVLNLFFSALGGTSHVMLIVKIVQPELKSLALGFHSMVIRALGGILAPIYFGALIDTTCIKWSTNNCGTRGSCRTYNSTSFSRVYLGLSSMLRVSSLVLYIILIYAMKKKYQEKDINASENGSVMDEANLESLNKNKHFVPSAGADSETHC

[25] = target: Nuclear receptor subfamily 1 group I member 2 (Homo sapiens, UniProt O75469); experiment: Activation of PXR (unknown origin)
[26] = target: Aryl hydrocarbon receptor (Homo sapiens, UniProt P35869); experiment: Activation of AhR (unknown origin)

Sequence of Adenosine receptor A2a (P29274 whole entry): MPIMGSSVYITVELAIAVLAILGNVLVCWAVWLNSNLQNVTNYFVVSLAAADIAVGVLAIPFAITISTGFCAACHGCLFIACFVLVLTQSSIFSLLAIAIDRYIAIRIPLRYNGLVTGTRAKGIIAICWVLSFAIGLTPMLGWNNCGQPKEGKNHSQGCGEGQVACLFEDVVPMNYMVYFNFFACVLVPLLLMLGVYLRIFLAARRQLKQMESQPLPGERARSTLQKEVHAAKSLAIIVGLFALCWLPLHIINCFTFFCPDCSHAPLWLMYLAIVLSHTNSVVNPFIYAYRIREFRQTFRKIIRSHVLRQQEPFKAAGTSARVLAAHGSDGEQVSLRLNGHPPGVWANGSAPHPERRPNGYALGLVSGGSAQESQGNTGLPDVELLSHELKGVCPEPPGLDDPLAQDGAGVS

| SMILES | EC50 (Adenosine receptor A2a) | EC50 [1] | EC50 [2] | EC50 [3] | EC50 (D(2) dopamine receptor [4]) | EC50 (D(2) dopamine receptor [5]) | EC50 (Histamine H1 receptor) | EC50 [6] | EC50 [7] | EC50 [8] | EC50 (Substance-P receptor) | EC50 (Mu-type opioid receptor) | EC50 [9] | EC50 [10] | EC50 [11] | EC50 [12] | EC50 [13] | EC50 [14] | EC50 (Vasopressin V1a receptor) | IC50 [15] | further results |
| --- | --- | --- | --- | --- | --- | --- | --- | --- | --- | --- | --- | --- | --- | --- | --- | --- | --- | --- | --- | --- | --- |
| c1ccc([C@@H]2C[C@H]2NC2CCNCC2)cc1 | > 100 µM | > 25 µM | > 100 µM | > 100 µM | > 100 µM | > 100 µM | > 25 µM | > 30 µM | > 30 µM | > 30 µM | > 25 µM | > 100 µM | > 100 µM | 5 µM | > 100 µM | 16 µM | > 25 µM | > 25 µM | > 30 µM | > 100 µM | IC50 [16]: > 100 µM; IC50 (Acetylcholinesterase): > 100 µM; IC50 [17]: > 30 µM; IC50 [18]: > 30 µM; IC50 [19]: > 30 µM; IC50 [20]: > 50 µM; IC50 (Aurora kinase B): > 32 µM; IC50 [21]: > 32 µM; IC50 [22]: 25 µM; IC50 [23]: 2 µM; IC50 [24]: > 30 µM; EC50 [25]: > 30 µM; EC50 [26]: > 100 µM |
| O=C(O)c1ccc(CN2CCC(CN[C@@H]3C[C@H]3c3ccccc3)CC2)cc1 [GSK2879552] | > 32 µM | > 40 µM | > 32 µM | > 32 µM | 20 µM | > 100 µM | > 40 µM | > 16 µM | > 16 µM | > 16 µM | > 40 µM | > 100 µM | > 100 µM | > 32 µM | > 30 µM | 20 µM | > 40 µM | > 40 µM | > 30 µM | 25 µM | IC50 [16]: > 100 µM; IC50 (Acetylcholinesterase): > 100 µM; IC50 [17]: > 30 µM; IC50 [18]: > 25 µM; IC50 [19]: > 30 µM; IC50 [20]: > 50 µM; IC50 (Aurora kinase B): > 32 µM; IC50 [21]: > 32 µM; IC50 [22]: > 100 µM; IC50 [23]: 80 µM; IC50 [24]: > 30 µM; EC50 [25]: > 30 µM; EC50 [26]: > 100 µM |
